Results reported in US20100310536A1, “METHOD FOR EXPANDING HEMATOPOIETIC STEM CELLS USING HETEROCYCLIC COMPOUND” (Nissan Chemical Industries Limited, priority 2007, published 2010).

Test system: human cord blood-derived CD34+ cells
Assay: Expansion of CD34+ cells from human cord blood-derived CD34+ cells (7-day liquid culture with SCF, flow cytometry count)
Format: cell-based
Conditions: 168 h, 0.3 μg/mL compound, number of CD34+ cells relative to absence of compound, 100 ng/mL SCF, 7 days, 37° C., read-out: Expansion efficiency
Experimental: Commercially available human cord blood-derived CD34^+ cells (Cambrex Bio Science Walkersville) were plated on a 12-well plate (Corning) (from 5000 to 10000 cells/1 mL/well). As the culture medium, StemSpan SFEM (Stemcell Technologies) containing 100 ng/mL SCF (R&D Systems) was used, and Compounds Nos. 1 to 11 dissolved in dimethyl sulfoxide were added in an amount of 0.1% (v/v) to a final concentration of 0.3 or 1 μg/mL.
After the cells were incubated in liquid culture at 37° C. for 7 days in a CO2 incubator (in an atmosphere containing 5 vol % CO2), the total number of cells was counted by trypan blue assay (Invitrogen) or Flow-Count™ fluorosphere assay (Beckman Coulter). The number of CD34^+ cells was calculated as follows. After the incubation, the cells in the liquid culture was stained with a CD34 antibody (PE, Becton, Dickinson and Company). The stained cells were analyzed with a flow cytometer (Beckman Coulter) to determined the proportion of CD34^+ cells, which was multiplied by the total number of cells to calculate the number of CD34^+ cells.
The expansion efficiencies in the presence of 0.3 μg/mL or 1 μg/mL of compounds based on the number of CD34^+ cells in the absence of them are shown in Table 1 on a scale of A for expansion efficiencies of 3 or greater, B for expansion efficiencies of at least 2 and less than 3, and C for expansion efficiencies of at least 1.4 and less than 2.

Structure (SMILES) | fold induction at 0.3 µg/mL
C/C(=N\NC(=O)c1ccc(C(=O)NNc2ccccn2)s1)c1csc(-c2ccc(Cl)c(Cl)c2)c1O [compound 5] | 1.4 to 2
C/C(=N\NC(=O)c1ccc(C(=O)N(N)Cc2ccncc2)s1)c1csc(-c2ccc(Cl)c(Cl)c2)c1O [compound 6] | 1.4 to 2
C/C(=N\NC(=O)c1ccc(C(=O)Cn2ccc(=O)cc2)s1)c1csc(-c2ccc(Cl)c(Cl)c2)c1O [compound 7] | 1.4 to 2
C/C(=N\NC(=O)c1ccc(C(=O)CSc2ccncc2)s1)c1csc(-c2ccc(Cl)c(Cl)c2)c1O [compound 8] | 2 to 3
C/C(=N\NC(=O)c1ccc(C(=O)N2CCS(=O)(=O)CC2)s1)c1csc(-c2ccc(Cl)c(Cl)c2)c1O [compound 9] | 1.4 to 2

Same assay, conditions: 168 h, 1 μg/mL compound, number of CD34+ cells relative to absence of compound, 100 ng/mL SCF, 7 days, 37° C., read-out: Expansion efficiency

Structure (SMILES) | fold induction at 1 µg/mL
CC(=O)NC1CCN(C(=O)c2ccc(C(=O)N/N=C(\C)c3csc(-c4ccc(Cl)c(Cl)c4)c3O)s2)C1 (centres unmarked) [compound 1] | ≥ 3
C/C(=N\NC(=O)c1ccc(C(=O)NN(C)C)s1)c1csc(-c2ccc(Cl)c(Cl)c2)c1O [compound 2] | ≥ 3
C/C(=N\NC(=S)Nc1cccc(C(=O)NCCC(N)=O)c1)c1csc(-c2ccc(Cl)c(Cl)c2)c1O [compound 3] | ≥ 3
C/C(=N\NC(=O)c1ccc(C(=O)N2CC(O)C(O)C2)s1)c1csc(-c2ccc(Cl)c(Cl)c2)c1O (centres unmarked) [compound 4] | ≥ 3
C/C(=N\NC(=O)c1ccc(C(=O)CSc2cc[n+]([O-])cc2)s1)c1csc(-c2ccc(Cl)c(Cl)c2)c1O [compound 10] | ≥ 3
C/C(=N\NC(=O)c1ccc(C(=O)COc2cc(C)nn2C)s1)c1csc(-c2ccc(Cl)c(Cl)c2)c1O [compound 11] | 2 to 3
